Test results published in patent US20220331303A1, “USE OF AN OREXIN 2 RECEPTOR AGONIST FOR THE TREATMENT OF EXCESSIVE SLEEPINESS” (Takeda Pharmaceutical Company Limited, priority 2019, published 2022).

Assays:
Type in all cases: in vivo, human
patients with NT2 [1] = assay: MWT in patients with NT2 (Cohorts C1, C2)
Procedure: (§1) The purpose of the study was to evaluate the safety, tolerability, pharmacokinetics and pharmacodynamics of Compound A after multiple days of IV administration in patients with NT2. NT2 patients were evaluated in Cohort C1 and C2 (Table 30). Compound A or placebo were administered via IV infusion over 9 hours once daily for 7 days. A total of 14 patients with NT2 were treated with Compound A or placebo (5, 4, and 5 subjects in the placebo, Compound A 44 mg, and Compound A 112 mg groups, respectively). In this part, potential efficacy of Compound A was evaluated with MWT, ESS, KSS, night-time PSG (NPSG), and PGI-C as an exploratory PD assessment.
An overview of study schedule and PD testing in NT2 Patients is illustrated in FIG. 9. After screening, patients eligible for these parts had to discontinue any medication for narcolepsy including medications used for EDS or cataplexy. The medications had to be stopped for a minimum of 7 days or at least 5 half-lives of each medication, whichever was longer, before the first day of dosing (Day 1). In all cohorts of these parts, subjects underwent NPSG on Day −2 and baseline MWT sessions 4 times on Day −1 (at around 10:00, 12:00, 14:00, and 16:00). Study drug dosing via IV infusion was started at around 08:00 on Days 1-7. MWT was conducted on Day 1 at around 10:00, 12:00, 14:00, and 16:00. Subjects were allowed to take a nap on the days with no MWT assessment. At night of Day 6, the subjects underwent NPSG once again to evaluate the effect of multiple daytime dosing on night-time sleep structure. On Day 7, the subjects underwent MWT at the same hours as on Day −1. The subjects were discharged from the study site on Day 8.
The MWT is a validated objective measure that evaluates a person's ability to remain awake under soporific conditions for a defined period of time. As there is no biological measure of wakefulness, this was measured indirectly by the inability or delayed tendency to fall asleep. This tendency to fall asleep was measured via EEG-derived sleep latency in MWT.
On Day −1, Day 1 and Day 7, 40-minute session (1 session) of MWTs was performed 4 times (approximately at 10:00, 12:00, 14:00, and 16:00) per day. Sleep latency of each session was recorded. Subjects were required to stay awake during an interval between sessions.

[2] = tested on: subjects with obstructive sleep apnea; assay: MWT in subjects with OSA experiencing EDS despite CPAP; conditions: single 9-hour IV infusion
Procedure: The treatment periods began on Day 1 of Treatment Period 1 (Study Day 1) with Treatment Periods 2 and 3 commencing on Study Days 3 and 5, respectively. In the morning of Day 1 of Treatment Period 1, eligible subjects were randomized to 1 of the 6 sequence groups as listed in Table 36. After randomization, the subject was dosed in 3 treatment periods according to the order defined by the sequence group to which he/she was randomized. On Day 1 of each treatment period, Compound A or placebo was administered as a single 9-hour IV infusion commencing at approximately 08:00. The infusion was terminated at approximately 17:00. On Day 1 of each treatment period, four 40-minute maintenance of wakefulness test (MWT) sessions was performed at 2, 4, 6, and 8 hours after the start of the infusion. Subjects were required to stay awake in between the MWT sessions.
(§2) On Day 1 of Treatment Period 1, all eligible subjects were randomized and received the first dose of study drug. Compound A or placebo was administered as a single 9-hour IV infusion commencing at approximately 08:00. […] Blood samples for determination of Compound A plasma concentrations were collected predose and at specified time points postdose, Safety assessments were recorded. During the study, AEs were recorded, clinical laboratory tests, vital signs, and safety ECGs were obtained. […]

patients with NT2 [3] = assay: Safety/tolerability of multiple IV doses in patients with NT2
Procedure: as §1

[4] = tested on: subjects with obstructive sleep apnea; assay: Safety/tolerability of single dose in subjects with OSA; conditions: single doses 44 mg and 112 mg, infusion over 9 hours, OSA patients
Description: The purpose of the study was to evaluate the pharmacokinetics (PK), pharmacodynamics (PD), safety and tolerability of a single intravenous (IV) dose of Compound A in adults who have been diagnosed with obstructive sleep apnea (OSA) and who are experiencing excessive daytime sleepiness (EDS) despite adequate use of CPAP. Twenty-five patients were randomized, and 23 patients completed the study. All patients at entry were having EDS despite being adequately controlled by CPAP for their sleep apnea.
as §2, with “08:00. On each dosing day (Study Days 1, 3, and 5), 40-minute MWT sessions were performed at 2, 4, 6, and 8 hours after the start of the infusion. There was a minimum 24-hour washout interval between the end of the infusion and the commencement of treatment in subsequent treatment periods to allow for complete elimination of the preceding treatment effect.” for “08:00.”

[5] = multiple IV administrations of up to 112 mg, NT2 patients

Compound: COC(=O)N1CCC[C@H](NS(C)(=O)=O)[C@@H]1CO[C@H]1CC[C@@H](c2ccccc2)CC1 [Compound A, methyl (2R,3S)-3-((methylsulfonyl)amino)-2-(((cis-4-phenylcyclohexyl)oxy)methyl)piperidine-1-carboxylate]
- Mean change from baseline in average sleep latency in MWT (patients with NT2 [1]; Compound A 44 mg, Day 1): 23.88 min
- Mean sleep latency in MWT (patients with NT2 [1]; Compound A 44 mg, Day 1): 33.03 min
- Mean change from baseline in average sleep latency in MWT (patients with NT2 [1]; Compound A 44 mg, Day 7): 25.79 min
- Mean sleep latency in MWT (patients with NT2 [1]; Compound A 44 mg, Day 7): 34.47 min
- Maximum sleep latency achieved in MWT (patients with NT2 [1]; Compound A 44 mg, at 2 and 8 hours on Day 1 and at 4 and 8 hours on Day 7): 40 min
- Mean change from baseline in average sleep latency in MWT (patients with NT2 [1]; Compound A 112 mg, Day 1): 31.15 min
- Mean sleep latency in MWT (patients with NT2 [1]; Compound A 112 mg, Day 1): 38.48 min
- Mean change from baseline in average sleep latency in MWT (patients with NT2 [1]; Compound A 112 mg, Day 7): 28.28 min
- Mean sleep latency in MWT (patients with NT2 [1]; Compound A 112 mg, Day 7): 35.60 min
- Maximum sleep latency achieved in MWT (patients with NT2 [1]; Compound A 112 mg, at 2, 4, and 8 hours both on Day 1 and Day 7): 40 min
- Mean placebo-adjusted increase in sleep latency in the MWT ([2]; Compound A 44 mg): 22 min
- Mean placebo-adjusted increase in sleep latency in the MWT ([2]; Compound A 112 mg): 28 min
- Number of TEAE related to BP (blood pressure increased) (patients with NT2 [3]; Compound A 112 mg group, mild intensity): 1
- SAE / TEAE leading to study drug discontinuation (patients with NT2 [3]; [5]): no SAE, and no TEAE leading to study drug discontinuation
- Safety and tolerability (patients with NT2 [3]; [5]): safe and well tolerated
- Safety and tolerability [4]: safe and well tolerated
